# Experimental data as given in the METLIN SMRT retention time set (Domingo-Almenara et al. 2019).
# Assay: gradient 5% acetonitrile 3 min, to 50% in 2 min, to 85% in 15 min, held 3 min, 100 µL/min
# Conditions: column: Zorbax Extend-C18 2.1 x 50 mm; eluents: water / acetonitrile, 0.1% formic acid
# Procedure, shortened: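 Using water and acetonitrile that each contained 0.1% formic acid, mixtures of ~100 pure standards were separated at 100 μL/min on a Zorbax Extend-C18 column (2.1 × 50 mm, 1.8 μm). The HPLC fed a quadrupole time-of-flight mass spectrometer working in positive and negative ionization mode, with dead and dwell volumes of 40 μL and 900 μL. Data were acquired over 3 months. Retention time was read from computationally picked adduct peaks after manual inspection of each.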
row,RP-LC retention time,Compound
1,583 s,COc1ccc(N2CCN(CCNC(=O)C3CCCN(c4cc(=O)n(C)c(=O)n4C)C3)CC2)cc1 (stereo unspecified)
2,910 s,COc1ccc(-n2ncc3c(=O)n(Cc4nc(-c5ccc(OC)c(OC)c5)no4)cnc32)cc1
3,789 s,O=C(c1ccccc1)N1CCN(S(=O)(=O)c2cc3c4c(c2)CCC(=O)N4CCC3)CC1
4,789 s,CCCCCOc1ccc(Nc2nc(C(=O)OCC)nc3ccccc23)cc1
5,1340 s,CCn1c(=O)n(Cc2cccc(Cl)c2)c(=O)c2cnc(-c3ccc(OC)cc3)nc21
6,531 s,CN1C(=O)[C@H]2CN(Cc3cccc(C#N)c3)C[C@H]2C1=O
7,1080 s,CCOC(=O)Cc1c(C)nc2c(-c3ccccc3)c(C)nn2c1C
8,702 s,CCOc1ccc(-c2[nH]ncc2CNS(=O)(=O)c2ccc(NC(C)=O)cc2)cc1
9,597 s,COc1cc(OC)c(OC)cc1CN1CC[C@]2(CO)CN(Cc3ccccc3)C[C@@H]2C1
10,798 s,CCOC(=O)COc1cc(-c2ccc(F)cc2)nc2ccc(NC(=O)c3ccco3)cc12
11,926 s,COc1cc(OC)cc(C(=O)N(C)CCc2noc(C3CCCCC3)n2)c1
12,1070 s,CC(C)Cn1cc(S(=O)(=O)NCc2cccc(C(F)(F)F)c2)c2cccnc21
13,945 s,CCOc1ccc(NC(=O)CN2C(=O)C3CCCCN3c3ccc(S(=O)(=O)N(C)C)cc32)cc1 (stereo unspecified)
14,748 s,Cc1ccc(S(=O)(=O)N2CCC(C(=O)NCc3cscn3)CC2)cc1C
15,793 s,Cc1cc2nnc(SCC(=O)c3ccc4c(c3)OCO4)n2c2ccccc12
16,626 s,Cn1cc(S(=O)(=O)N2CCC(C(=O)N3CCOCC3)CC2)cc1C(=O)N1CCCC1
17,973 s,CCCCN(C)C(=O)Cn1nc2c3cc(-c4cc(C)ccc4C)nn3ccn2c1=O
18,653 s,COC(=O)CNC(=O)N1CCC(N2C(=O)C3(CCCC3)C2c2scnc2C)CC1 (stereo unspecified)

row,RP-LC retention time,Compound
1,854 s,Cc1ccc(/C=N/NC(=O)c2ccccc2Oc2ccccc2)o1
2,728 s,COc1ccc(CNC(=O)C2(c3ccc(NC(C)=O)cc3)CCC2)cc1
3,957 s,CC(=O)N1CCc2sc(S(=O)(=O)N3CCN(c4cccc(Cl)c4)CC3)cc2C1
4,673 s,CCc1nc2c(=O)n(CC(=O)N3CCCCC3)nc(C)c2s1
5,816 s,COCCN1C(=O)CCc2cc(NS(=O)(=O)c3ccc(C)c(C)c3)ccc21
6,789 s,COCCn1cc(C(=O)N2CCc3ccccc32)c2nn(-c3ccccc3)c(=O)c-2c1
7,658 s,CCn1cc(CN2CCC(C(=O)NCc3ccco3)CC2)c2ccccc21
8,570 s,Cc1nn(C)c(C)c1CCN(C)C(=O)C1CCCCC(=O)N1 (stereo unspecified)
9,764 s,COCC(=O)Nc1nc(-c2ccc3c(c2)N(C)C(=O)CO3)c(C)s1
10,880 s,O=C(CN1CCc2ccccc2C1C(=O)N1CCCC1)NCc1ccc(C(F)(F)F)cc1 (stereo unspecified)
11,659 s,Cc1cc(C(=O)N2CCN(c3ccc(-c4cccs4)nn3)CC2)no1
12,876 s,Cc1nn(-c2ccccc2)c(C)c1S(=O)(=O)N1CCC(C(=O)NCc2cccs2)CC1
13,666 s,COc1ccc(OC)c(S(=O)(=O)N2CC(N3CC(C(=O)N4CCCC4)CC3=O)C2)c1 (stereo unspecified)
14,563 s,O=C(c1cnccn1)N1C[C@@H](COCC2CC2)[C@H](c2ccncc2)C1
15,666 s,O=C(CC1CCN(C(=O)C2(c3ccccc3)CC2)C1)NC1CC1 (stereo unspecified)
16,691 s,CCOC(=O)c1c(N)n(-c2ccccc2OC)c2nc3ccccc3nc12
17,1110 s,O=C(Cc1ccccc1F)N1CCCC1c1nc(-c2cccc(C(F)(F)F)c2)no1 (stereo unspecified)
18,634 s,O=C(NCC1CCCO1)NC1CC(=O)N(c2ccc(Cl)cc2)C1 (stereo unspecified)
